This note sets out measurements from patent US9149441B2 (priority 2008, dated 2015).

One series concerns S. Aureus. Put plainly: Vancomycin formulations in S. Aureus septic shock rat model. Type of series: in vivo. The settings on record: for Survival: simultaneous treatment group, peritonitis rat model (Table 8), 15 mg/kg twice/day for 3 days. Here is the method: The efficacy of vancomycin nanospheres as compared to the solution formulation was determined in a septic shock rat model.
Three scenarios were evaluated:
Group 1. Determination of the efficacy of the encapsulated and solution formulation of vancomycin. [Pre-treatment Group].
The nanospheres and solution vancomycin formulations (15 mg/kg twice/day for 3 days) or blank nanospheres (control) were injected to different groups of animals 4 hrs prior to the animals being injected with S. Aureus (i.p.; 1.0×10^8 cfu/mL). Blood samples (0.5 mL) were obtained to determine the bacterial count at 0, 4, 24, 48, 96 and 120 hrs.
Group 2. Determination of the efficacy of the encapsulated and solution formulations of vancomycin. [Simultaneous treatment Group]
In this set of experiments, S. Aureus bacteria (1.0×10^8 cfu/mL) were administered i.p. and simultaneously the NS and solution gentamicin formulations (15 mg/kg twice/day for 3 days) or blank nanospheres (control) were injected subcutaneously to different groups of rats. Blood samples (0.5 mL) were obtained to determine the bacterial count at 0, 4, 24, 48, 96 and 120 hrs.
Group 3. Determination of the efficacy of the nanosphere and solution formulation of vancomycin. [Delayed treatment Group].
In this set of experiments, S. Aureus bacteria (1.0×10^8 cfu/mL) were administered i.p. to different groups of rats and 4 hrs following infection the NS and solution gentamicin formulations (15 mg/kg twice/day for 3 days) or blank nanospheres (control) were injected. Blood samples (0.5 mL) were obtained to determine the bacterial count at 0, 4, 24, 48, 96 and 120 hrs.

The next series has as its system red blood cells (RBCs). Nature of the series: Potassium release from red blood cells (membrane toxicity). Type of series: cell-based. The conditions noted are these: all experimental concentrations; solution effect rising up to 0.08 mg/ml. From the text:
Potassium is found in high concentrations inside the red blood cells (RBCs). Any damage to membrane will result in leaking out of potassium from the RBCs.

The subject of the next series is E. Coli. Nature of the series: Gentamicin formulations in E. Coli septic shock (peritonitis) rat model. Type of series: in vivo. The conditions noted are these: for % inhibition of the bacterial growth in the blood / Bact. count (cfu/mL): 120 hrs; for Bact. count (cfu/mL): blood; for Survival: peritonitis rat model (Table 5). Here is the method:
Gentamicin in the solution and the nanosphere form were tested on rats in order to evaluate the E. Coli distribution in the body, also the two formulations were evaluated in septic shock rat models.
Group 1. Determination of the efficacy of the encapsulated and solution formulation of gentamicin. [Pre-treatment Group].
The nanospheres and solution gentamicin formulations (15 mg/kg twice/day for 3 days) or blank nanospheres (control) were injected to different groups of animals 4 hrs prior to the animals being injected with E. Coli (i.p.; 1.1×10^9 cfu/mL). Blood samples were obtained to determine the bacterial count at 0, 4, 24, 48, 96 and 120 hrs.
Group 2. Determination of the efficacy of the encapsulated and solution formulations of gentamicin. [Simultaneous treatment Group]
In this set of experiments, E. Coli bacteria (1.1×10^9 cfu/mL) were administered i.p. and simultaneously the NS and solution gentamicin formulations (15 mg/kg twice/day for 3 days) or blank nanospheres (control) were injected subcutaneously to different groups of rats. Blood samples were obtained to determine the bacterial count at 0, 4, 24, 48, 96 and 120 hrs.
Group 3. Determination of the efficacy of the nanosphere and solution formulation of gentamicin. [Delayed treatment Group].
In this set of experiments, E. Coli bacteria (1.1×10^9 cfu/mL) were administered i.p. to different groups of rats and 4 hrs following infection the NS and solution gentamicin formulations (15 mg/kg twice/day for 3 days) or blank nanospheres (control) were injected. Blood samples were obtained to determine the bacterial count at 0, 4, 24, 48, 96 and 120 hrs.

In the series with S. Aureus, `CN[C@H](CC(C)C)C(=O)N[C@H]1C(=O)N[C@@H](CC(N)=O)C(=O)N[C@H]2C(=O)N[C@H]3C(=O)N[C@H](C(=O)N[C@H](C(=O)O)c4cc(O)cc(O)c4-c4cc3ccc4O)[C@H](O)c3ccc(c(Cl)c3)Oc3cc2cc(c3O[C@@H]2O[C@H](CO)[C@@H](O)[C@H](O)[C@H]2O[C@H]2C[C@](C)(N)[C@H](O)[C@H](C)O2)Oc2ccc(cc2Cl)[C@H]1O` [Vancomycin Solution, vancomycin] registered a Survival of 40%. In addition, the “Bacterial count in the blood vs blank BSA nanospheres” value in the series on S. Aureus (text Group 1, FIG. 14 (prophylactic treatment)) is given as “significant lower bacterial count”; in the series on S. Aureus (text Group 2, FIG. 15 (simultaneous treatment)) it was “significant lower bacterial count”.
For `C[C@@H]1[C@H](O)[C@@H](C)/C=C/C=C/C=C/C=C/C=C/C=C/C=C/[C@H](O[C@@H]2O[C@H](C)[C@@H](O)[C@H](N)[C@@H]2O)C[C@@H]2O[C@](O)(C[C@@H](O)C[C@@H](O)[C@H](O)CC[C@@H](O)C[C@@H](O)CC(=O)O[C@H]1C)C[C@H](O)[C@H]2C(=O)O` [solution formulation of Amphotericin B, Amphotericin B], the “Potassium release from RBCs” value in the series on red blood cells (RBCs) is given as “significant release of potassium from the RBCs”.
For the compound gentamicin [Gentamicin Solution], the “% inhibition of the bacterial growth in the blood” value in the series on E. Coli (delayed treatment group (Table 7), listed as Solution) is reported as 15%; with E. Coli (delayed treatment group (Table 7), listed as gentamicin solution), “about 15%”; in the series with E. Coli (prophylactic treatment group (Table 6)), “about 35%”; in the series on E. Coli (simultaneous treatment group (Table 4)) it was 75%; in the series with E. Coli (simultaneous treatment group (Table 4), listed as gentamicin solution) it was “about 75%”. The “Bact. count (cfu/mL)” value was found to be 110 cfu/mL with E. Coli (delayed treatment group) and 35 cfu/mL in the series with E. Coli (simultaneous treatment group, 15 mg/kg twice/day for 3 days). The Survival with E. Coli (simultaneous treatment group) is on record as 35%; in the series on E. Coli (simultaneous treatment group, listed as gentamicin solution) it was 55%; with S. Aureus it was 40%. Further, in the series on S. Aureus (text Group 3, FIG. 16 (delayed treatment)), the “Bacterial count in the blood vs blank BSA nanospheres” value is “significant lower bacterial count”.
